# Laboratory results: patent publication US20140363486A1, “METHODS FOR REDUCING OR ALTERING SCAR FORMATION” (Prelief, Inc., priority 2007, published 2014)
# Legend:
# [1] = test system: burn wound to the inner forearm; assay: Burn wound to the inner forearm, right side of the wound treated; assay type: in vivo, human
# From the text: Color variations in the background of the photos are an artifact of the time of the day and the location when the pictures were taken.
# FIGS. 4a-4f illustrate the wound healing effect of a glycerophosphate salt on a burn wound to the inner forearm of a human subject. […] The left-side of the wound received no treatment.
# [2] = test system: surgical wounds resulting from double knee replacement operations; assay: 20-patient clinical study, surgical wounds from double knee replacement operations, one leg treated; assay type: in vivo, human
# From the text: FIGS. 2a-2d are black and white photocopies of the color photographs of the knees of another human subject. They received simultaneous bilateral total knee replacements. […] Their left leg (on the right side of the photographs) received no CGP treatment.
# FIGS. 2a, 2b, 2c and 2d, which are black and white photocopies of the color photographs of the knees of one of the 20 human subjects, illustrate the exemplary results from the clinical study. The subject received simultaneous bilateral total knee replacements. […] Their left leg (on the right side of the photographs) received no CGP treatment. Since the commencement of the treatment, 2 ml of Cellerity® 10 lotion was topically applied to the wounds of the knee surgeries twice daily everyday and will continue for 6 consecutive weeks.
# The untreated leg, in contrast, has deep, wandering scars that are almost chasms in their depth and raw openness.
# In contrast, SteriStripes were required to be applied to the untreated leg and continued for an additional 6 days.
# In addition, two subjects of the first five subjects enrolled in the double knee replacement clinical study described above reported they felt “less heat” in their knee incision site treated with CGP than in the untreated knee site during the early weeks of post operative recovery.
# [3] = test system: wounds resulting from an excision surgery to the nose; assay: Bilateral surgical nose excision wounds, one wound treated; assay type: in vivo, human; conditions: left-side wound
# From the text: FIGS. 3a-3f illustrate the wound healing effect of a glycerophosphate salt on wounds resulting from an excision surgery, e.g., to the nose. A subject received two surgically inflicted wounds to their nose occasioned by removal of benign growths. […] Per physician's request, Neosporin® was applied to both wounds for one week, and Cellerity® was applied topically to the worst of the two wounds, i.e., the left-side surgical wound (on the right side of the photographs), twice daily. The subject was instructed to return to the laboratory for weekly observations.
# [4] = test system: rhino mucosal passage inflammation; assay: Observation of low CGP concentrations on rhino mucosal passage inflammation; assay type: in vivo; conditions: lower concentrations, between 1% and 2% by weight
# From the text: In one embodiment of the present invention, an effective amount of a glycerophosphate salt, in a form of dry powder, granules, or gel is applied directly to the wound via spray, physical transfer by finger or implement to form a coating on the wound. The coating can contain a final local concentration of the glycerophosphate salt of about 0.5%-100% by weight. For example, the final local concentration of the glycerophosphate salt can be about 0.5% to about 5%, about 5% to about 15%, about 15% to about 25%, about 25% to about 35%, about 35% to about 45%, about 45% to about 55%, about 55% to about 65%, about 65% to about 75%, about 75% to about 85%, or about 85% to about 100%, by weight.
substance,measurement,setting,value
calcium glycerophosphate [CGP],time at which the wound healing improvement effect was first observed,"[1]; Cellerity lotion (7.5% (w/w) CGP) twice daily for the first three days, from 24 hours post infliction",3 days
same,wound status,"[1]; after 16 days of CGP treatment, 7.5% lotion for three days, then 37% (w/w) CGP paste, the untreated side still had a pinkish color",completely healed and disappeared
same,healing of the surgical wound / surgical scar,"[2]; Cellerity 10 lotion (10% (w/w) CGP), 2 ml twice daily from approx. 72 hours post operation, up to 14 days post operation, vs untreated leg",healed dramatically better
same,swelling and continuing pale inflammation,"[2]; Cellerity 10 lotion twice daily, 14 days post operation, observed in the untreated leg",showed neither
same,need for SteriStrips post staple removal,"[2]; treated leg, the untreated leg required SteriStrips for an additional 6 days",alleviated the need for application of SteriStrips
same,heat felt in the knee incision site,"[2]; two of the first five subjects enrolled, treated vs untreated knee site, early weeks of post operative recovery",less heat
same,wound appearance,[3]; after 6 days of CGP treatment,appeared less deep than it was a week ago
same,wound appearance,[3]; after 16 days of CGP treatment,appeared significantly advanced
same,wound appearance,[3]; after 30 days of CGP treatment,"healed, fully recolonized with epidermal skin"
same,wound appearance,[3]; after 36 days of CGP treatment,completely healed
same,wound appearance,[3]; after 51 days of CGP treatment,completely healed
same,"wound healing, subject's report","[3]; after one day of treatment, Cellerity (7.5% (w/w) CGP) twice daily, Neosporin on both wounds for one week",almost immediate apparent change in wound healing in favor of the CGP treated site
same,effect on apparent rhino mucosal passage inflammation,[4],favorably affect
